Reference: patent US6914045B2, “Glycopeptide antibiotics” (Wyeth Holdings Corporation, priority 2001, dated 2005)
Values after ≈ are worked out from the molar mass of the structure shown.

Assays:
Test in all cases: in vitro antibacterial evaluation, MIC by broth dilution
Assay type in all cases: cell-based
Escherichia coli = tested on: Escherichia coli
Outline: (§1)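 Broth dilution per NCCLS M7-A2 in Mueller-Hinton II medium, inoculum 5×10^5 CFU/mL, antibiotic range 64-0.06 μg/mL. MIC taken as lowest concentration inhibiting growth; Gram-positive panel includes recent clinical isolates resistant to methicillin, penicillin and/or vancomycin.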

Streptococcus sp. = conditions: broth dilution, 18 hours at 35° C.
Outline: as §1

Enterococcus sp. = conditions: broth dilution, 18 hours at 35° C.
Outline: as §1

Staphylococcus sp. = conditions: broth dilution, 18 hours at 35° C.; for MIC Staphylococcus aureus (GC 1131): strain GC 1131
Outline: as §1

MIC Escherichia coli (ATCC 25922) (Escherichia coli; strain ATCC 25922, 18 hours at 35° C.): >64 µg/mL
MIC Escherichia coli (GC 4559) (Escherichia coli; strain GC 4559, 18 hours at 35° C.): >64 µg/mL
MIC Escherichia coli (GC 4560) (Escherichia coli; strain GC 4560, 18 hours at 35° C.): 8 µg/mL (≈ 5.49 µM)
MIC Streptococcus agalactiae (GC 4564) (Streptococcus sp.; Streptococcus agalactiae (GC 4564)): 8 µg/mL (≈ 5.49 µM)
MIC Streptococcus pneumoniae (ATCC 6301) (Streptococcus sp.; Streptococcus pneumoniae (ATCC 6301)): 2 µg/mL (≈ 1.37 µM)
MIC Streptococcus pneumoniae (GC 1894) (Streptococcus sp.; Streptococcus pneumoniae (GC 1894)): 0.5 µg/mL (≈ 0.343 µM)
MIC Streptococcus pneumoniae (GC 4565) (Streptococcus sp.; Streptococcus pneumoniae (GC 4565)): 2 µg/mL (≈ 1.37 µM)
MIC Streptococcus pyogenes (GC 4563) (Streptococcus sp.; Streptococcus pyogenes (GC 4563)): 4 µg/mL (≈ 2.74 µM)
MIC Streptococcus pneumoniae (ATCC 6301) (Streptococcus sp.; strain ATCC 6301): 2 µg/mL (≈ 1.37 µM)
MIC Streptococcus pneumoniae (GC 1894) (Streptococcus sp.; strain GC 1894): 0.5 µg/mL (≈ 0.343 µM)
MIC Streptococcus pyogenes (GC 4563) (Streptococcus sp.; strain GC 4563): 4 µg/mL (≈ 2.74 µM)
MIC Streptococcus agalactiae (GC 4564) (Streptococcus sp.; strain GC 4564): 8 µg/mL (≈ 5.49 µM)
MIC Streptococcus pneumoniae (GC 4565) (Streptococcus sp.; strain GC 4565): 2 µg/mL (≈ 1.37 µM)
MIC Enterococcus avium (GC 4558) (Enterococcus sp.; Enterococcus avium (GC 4558)): 32 µg/mL (≈ 22 µM)
MIC Enterococcus faecalis (ATCC 29212) (Enterococcus sp.; Enterococcus faecalis (ATCC 29212)): 32 µg/mL (≈ 22 µM)
MIC Enterococcus faecalis (GC 2242) (Enterococcus sp.; Enterococcus faecalis (GC 2242)): 32 µg/mL (≈ 22 µM)
MIC Enterococcus faecalis (GC 2691) (Enterococcus sp.; Enterococcus faecalis (GC 2691)): 32 µg/mL (≈ 22 µM)
MIC Enterococcus faecalis (GC 3059) (Enterococcus sp.; Enterococcus faecalis (GC 3059)): 32 µg/mL (≈ 22 µM)
MIC Enterococcus faecalis (GC 4552) (Enterococcus sp.; Enterococcus faecalis (GC 4552)): 32 µg/mL (≈ 22 µM)
MIC Enterococcus faecalis (GC 4553) (Enterococcus sp.; Enterococcus faecalis (GC 4553)): 64 µg/mL (≈ 43.9 µM)
MIC Enterococcus faecalis (GC 4554) (Enterococcus sp.; Enterococcus faecalis (GC 4554)): 32 µg/mL (≈ 22 µM)
MIC Enterococcus faecalis (GC 6189) (Enterococcus sp.; Enterococcus faecalis (GC 6189)): 32 µg/mL (≈ 22 µM)
MIC Enterococcus faecium (GC 2243) (Enterococcus sp.; Enterococcus faecium (GC 2243)): 32 µg/mL (≈ 22 µM)
MIC Enterococcus faecium (GC 4556) (Enterococcus sp.; Enterococcus faecium (GC 4556)): 32 µg/mL (≈ 22 µM)
MIC Enterococcus faecium (GC 4557) (Enterococcus sp.; Enterococcus faecium (GC 4557)): 16 µg/mL (≈ 11 µM)
MIC Enterococcus faecalis (ATCC 29212) (Enterococcus sp.; strain ATCC 29212): 32 µg/mL (≈ 22 µM)
MIC Enterococcus faecalis (GC 2242) (Enterococcus sp.; strain GC 2242): 32 µg/mL (≈ 22 µM)
MIC Enterococcus faecium (GC 2243) (Enterococcus sp.; strain GC 2243): 32 µg/mL (≈ 22 µM)
MIC Enterococcus faecalis (GC 2691) (Enterococcus sp.; strain GC 2691): 32 µg/mL (≈ 22 µM)
MIC Enterococcus faecalis (GC 3059) (Enterococcus sp.; strain GC 3059): 32 µg/mL (≈ 22 µM)
MIC Enterococcus faecalis (GC 4552) (Enterococcus sp.; strain GC 4552): 32 µg/mL (≈ 22 µM)
MIC Enterococcus faecalis (GC 4553) (Enterococcus sp.; strain GC 4553): 64 µg/mL (≈ 43.9 µM)
MIC Enterococcus faecalis (GC 4554) (Enterococcus sp.; strain GC 4554): 32 µg/mL (≈ 22 µM)
MIC Enterococcus faecium (GC 4556) (Enterococcus sp.; strain GC 4556): 32 µg/mL (≈ 22 µM)
MIC Enterococcus faecium (GC 4557) (Enterococcus sp.; strain GC 4557): 16 µg/mL (≈ 11 µM)
MIC Enterococcus avium (GC 4558) (Enterococcus sp.; strain GC 4558): 32 µg/mL (≈ 22 µM)
MIC Enterococcus faecalis (GC 6189) (Enterococcus sp.; strain GC 6189): 32 µg/mL (≈ 22 µM)
MIC Staphylococcus aureus (GC 1131) (Staphylococcus sp.; inoculum 5×10^5 CFU/mL): 16 µg/mL (≈ 11 µM)
MIC Staphylococcus aureus (ATCC 29213) (Staphylococcus sp.; strain ATCC 29213): 16 µg/mL (≈ 11 µM)
MIC Staphylococcus aureus (GC 1131) (Staphylococcus sp.): 16 µg/mL (≈ 11 µM)
MIC Staphylococcus aureus (GC 3051) (Staphylococcus sp.; strain GC 3051): 16 µg/mL (≈ 11 µM)
MIC Staphylococcus aureus (GC 3053) (Staphylococcus sp.; strain GC 3053): 32 µg/mL (≈ 22 µM)
MIC Staphylococcus aureus (GC 4541) (Staphylococcus sp.; strain GC 4541): 16 µg/mL (≈ 11 µM)
MIC Staphylococcus aureus (GC 4542) (Staphylococcus sp.; strain GC 4542): 16 µg/mL (≈ 11 µM)
MIC Staphylococcus aureus-SMITH (GC 4543) (Staphylococcus sp.; strain GC 4543): 8 µg/mL (≈ 5.49 µM)
MIC Staphylococcus aureus (GC 4544) (Staphylococcus sp.; strain GC 4544): 16 µg/mL (≈ 11 µM)
MIC Staphylococcus aureus (GC 4545) (Staphylococcus sp.; strain GC 4545): 8 µg/mL (≈ 5.49 µM)
MIC Coagulase Negative Staphylococcus (GC 4547) (Staphylococcus sp.; strain GC 4547): 8 µg/mL (≈ 5.49 µM)
MIC Coagulase Negative Staphylococcus (GC 4548) (Staphylococcus sp.; strain GC 4548): 8 µg/mL (≈ 5.49 µM)
MIC Coagulase Negative Staphylococcus (GC 4549) (Staphylococcus sp.; strain GC 4549): 8 µg/mL (≈ 5.49 µM)
MIC Coagulase Negative Staphylococcus (GC 4551) (Staphylococcus sp.; strain GC 4551): 16 µg/mL (≈ 11 µM)
MIC Coagulase Negative Staphylococcus (GC 6257) (Staphylococcus sp.; strain GC 6257): 8 µg/mL (≈ 5.49 µM)
MIC Staphylococcus aureus-SMITH (GC 4543) (Staphylococcus sp.; strain SMITH GC 4543): 8 µg/mL (≈ 5.49 µM)
Structure (SMILES): CCOc1cc(C2OCC3OC(OC4C(CO)OC(Oc5ccc(CC6NC(=O)C(C(C)c7ccccc7)NC(=O)CNC(=O)C(CO)NC(=O)C(C(O)C7CNC(=N)N7C7OC(CO)C(O)C(O)C7O)NC(=O)C(C(O)C7CNC(=N)N7)NC6=O)cc5)C(O)C4O)C(O)C(O)C3O2)ccc1OC (stereo not drawn) [Example 152]
MIC Staphylococcus haemolyticus (GC 4546) (Staphylococcus sp.; strain GC 4546): 8 µg/mL (≈ 5.49 µM)
